From patent publication US9657092B2, “S100A4 antibodies and therapeutic uses thereof” (LYKERA BIOMED SA, priority 2010, dated 2017)

System: MiaPACA-2 cells
Assay: Cytotoxic effect measured by hexosaminidase activity
Type: cell-based
Conditions: Homo sapiens, MIA PaCa-2; gemcitabine alone, 72 h; read-out: EC50 cell viability
Description: Briefly, MiaPACA-2 cells were plated onto 96-well cell culture plates (5×10^3 cells/well) in 50 μl of DMEM medium. […] After removing the culture media cells were washed once with PBS. Sixty microliters of substrate solution (p-nitrophenol-N-acetyl-beta-D-glucosamide 7.5 mM, sodium citrate 0.1 M, 0.25% Triton X-100, pH 5.0) was added to each well and plates were incubated at 37° C. for 2 hours; after this incubation time, a bright yellow appears and plates were developed by adding 90 μl of developer solution (Glycine 50 mM, EDTA 5 mM, pH 10.4), and the absorbance at 450 nm was measured by using a multi-well scanning spectrophotometer. Data analysis was done normalizing the results with the negative control (untreated cells) which were considered as 100% of viability.
Curves were adjusted using a sigmoidal dose-response (variable slope) equation, and EC50 values were obtained from the equation: Y=Bottom+(Top−Bottom)/(1+10^((Log EC50−X)*HillSlope)) where X is the logarithm of concentration and Y is the response. Y starts at Bottom and goes to Top with a sigmoid shape.

Structure (SMILES): Nc1ccn([C@@H]2O[C@H](CO)[C@@H](O)C2(F)F)c(=O)n1 [gemcitabine]
- EC50: 8.36 nM
